Experimental data published in patent publication US12054498B2, “Heteroaromatic macrocyclic ether chemotherapeutic agents” (Nuvalent, Inc., priority 2020, dated 2024).

Columns and labels:
ALK-wt = biological target: T1, ALK-wt (Homo sapiens, UniProt Q9UM73); test: Biochemical kinase assay, ALK-wt kinase domain; settings: apparent inhibitory constant, Morrison equation; ATP 2 mM in substrate solution; read-out: ALK-wt Ki^app
T1 construct: purchased Carna 08-518
Summary of the method: (§1)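 Compound in DMSO added first, then substrate solution (ATP 2 mM; AQT0101 or AQT0104, 26 μM; pH 7.5 HEPES, 10 mM MgCl2), then kinase solution with enzyme at 0.5–3 nM depending on construct. Kinetic read every 2 min for 120 min at 30° C; Ki^app by Morrison regression.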

ALK L1196M/G1202R = biological target: T2, ALK L1196M/G1202R (Homo sapiens, UniProt Q9UM73, G1202R/L1196M); test: Biochemical kinase assay, ALK L1196M/G1202R kinase domain; settings: apparent inhibitory constant, Morrison equation; ATP 2 mM in substrate solution; read-out: ALK-L1196M-G1202R Ki^app
T2 construct: purchased SignalChem A19-12NG
T2 sequence (Q9UM73 1116-1392 L1196M/G1202R limits assumed): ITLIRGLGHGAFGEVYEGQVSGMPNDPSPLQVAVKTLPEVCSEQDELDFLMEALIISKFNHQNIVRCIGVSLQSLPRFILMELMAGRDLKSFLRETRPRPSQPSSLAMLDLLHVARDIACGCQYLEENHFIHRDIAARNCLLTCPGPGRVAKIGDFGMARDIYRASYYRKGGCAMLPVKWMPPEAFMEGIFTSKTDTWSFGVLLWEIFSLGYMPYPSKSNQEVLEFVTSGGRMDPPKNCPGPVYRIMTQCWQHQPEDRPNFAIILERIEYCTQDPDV
Summary of the method: as §1

ROS1-wt = biological target: T3, ROS1-wt (Homo sapiens, UniProt P08922); test: Biochemical kinase assay, ROS1-wt kinase domain; settings: apparent inhibitory constant, Morrison equation; ATP 2 mM in substrate solution; read-out: ROS1-wt Ki^app
T3 construct: purchased Carna 08-163
T3 sequence (P08922 1945-2222 limits assumed): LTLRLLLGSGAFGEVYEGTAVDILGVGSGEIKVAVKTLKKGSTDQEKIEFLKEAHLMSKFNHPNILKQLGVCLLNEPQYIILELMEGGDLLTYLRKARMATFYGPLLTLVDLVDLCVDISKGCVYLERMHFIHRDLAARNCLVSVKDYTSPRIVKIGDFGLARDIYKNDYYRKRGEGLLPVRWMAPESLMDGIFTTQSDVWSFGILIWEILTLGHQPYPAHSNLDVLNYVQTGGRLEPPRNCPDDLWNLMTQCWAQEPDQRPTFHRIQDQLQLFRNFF
Summary of the method: (§2)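 Kinetic read: 485 nm, 2-min intervals, 120 min, 30 °C. Substrate mix — ATP 2 mM, AQT0101 26 μM, HEPES 50 mM pH 7.5, MgCl2 10 mM. Output: Ki^app, Morrison equation.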

ROS1-G2032R = biological target: T4, ROS1-G2032R (Homo sapiens, UniProt P08922, G2032R); test: Biochemical kinase assay, ROS1-G2032R kinase domain; settings: apparent inhibitory constant, Morrison equation; ATP 2 mM in substrate solution; read-out: ROS1-G2032R Ki^app
T4 construct: purchased SignalChem R14-12BG
T4 sequence (P08922 1945-2222 G2032R limits assumed): as the sequence (P08922 1945-2222 limits assumed) above, with G88R counted along it
Summary of the method: as §2

TRKA-wt = biological target: T5, TRKA-wt (Homo sapiens, UniProt P04629); test: Biochemical kinase assay, TRKA-wt kinase domain; settings: apparent inhibitory constant, Morrison equation; ATP 2 mM in substrate solution; read-out: TRKA-wt Ki^app
T5 construct: or TRKA-wt (1 nM, BPS Bio, 40280) kinase domains in buffer; purchased BPS Bio 40280
T5 sequence (P04629 510-781 limits assumed): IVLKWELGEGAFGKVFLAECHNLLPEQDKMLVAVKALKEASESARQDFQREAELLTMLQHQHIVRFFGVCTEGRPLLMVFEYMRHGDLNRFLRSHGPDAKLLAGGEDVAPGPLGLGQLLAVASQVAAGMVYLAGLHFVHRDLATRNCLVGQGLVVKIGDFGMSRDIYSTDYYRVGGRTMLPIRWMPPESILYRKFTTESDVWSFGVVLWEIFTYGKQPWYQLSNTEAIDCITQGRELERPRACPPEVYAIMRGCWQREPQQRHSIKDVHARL
Summary of the method: as §1

[1] = biological target: T6, Ba/F3 cells CD74-ROS1 wild-type (wt) (Homo sapiens, UniProt P08922); test: Ba/F3 cell proliferation assay, CD74-ROS1 wild-type; type: cell-based; settings: 72 hours, CellTiter-Glo
T6 construct: fusion of the C-terminus of ROS1 with the N-terminus of various partner proteins; host or cells: Ba/F3 (RIKEN), retroviral pMSCV-puro; the other entry of the earlier key: CD74 (P04233, HLA class II histocompatibility antigen gamma chain)
T6 sequence (P08922 1883-2347 limits assumed): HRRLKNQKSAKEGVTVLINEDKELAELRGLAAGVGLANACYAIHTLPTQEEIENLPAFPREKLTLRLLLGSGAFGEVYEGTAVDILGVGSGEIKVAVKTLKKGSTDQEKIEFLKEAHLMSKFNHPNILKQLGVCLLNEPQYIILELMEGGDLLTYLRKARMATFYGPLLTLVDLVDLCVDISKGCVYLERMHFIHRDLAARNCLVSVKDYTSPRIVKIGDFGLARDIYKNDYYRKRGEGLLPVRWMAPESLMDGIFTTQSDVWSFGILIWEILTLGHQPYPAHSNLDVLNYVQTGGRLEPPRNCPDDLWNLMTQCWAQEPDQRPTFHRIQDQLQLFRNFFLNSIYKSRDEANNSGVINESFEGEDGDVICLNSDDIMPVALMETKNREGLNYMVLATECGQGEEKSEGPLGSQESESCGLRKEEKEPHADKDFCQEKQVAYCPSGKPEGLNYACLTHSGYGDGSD
Summary of the method: (§3)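 Viability read by CellTiter-Glo luminescence after 72 h exposure to 3-fold serial compound dilutions, four-parameter logistic fitting giving IC50.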

[2] = biological target: T7, Ba/F3 cells CD74-ROS1 G2032R (Homo sapiens, UniProt P08922, G2032R); test: Ba/F3 cell proliferation assay, CD74-ROS1 G2032R; type: cell-based; settings: 72 hours, CellTiter-Glo
T7 construct: fusion of the C-terminus of ROS1 with the N-terminus of various partner proteins; host or cells: Ba/F3 (RIKEN), retroviral pMSCV-puro; the other entry of the earlier key: CD74 (P04233, HLA class II histocompatibility antigen gamma chain)
T7 sequence (P08922 1883-2347 G2032R limits assumed): as the sequence (P08922 1883-2347 limits assumed) above, with G150R counted along it
Summary of the method: as §3

[3] = biological target: T8, Ba/F3 cells EML4-ALK wt (variant 1) (Homo sapiens, UniProt Q9UM73); test: Ba/F3 cell proliferation assay, EML4-ALK wt (variant 1); type: cell-based; settings: 72 hours, CellTiter-Glo
T8 construct: echinoderm microtubule-associated protein-like 4 (EML4) gene and the ALK tyrosine kinase domain; host or cells: Ba/F3 (RIKEN), retroviral pMSCV-puro; the other entry of the earlier key: EML4 (Q9HC35, Echinoderm microtubule-associated protein-like 4)
T8 sequence (Q9UM73 with tags, fused parts or gaps): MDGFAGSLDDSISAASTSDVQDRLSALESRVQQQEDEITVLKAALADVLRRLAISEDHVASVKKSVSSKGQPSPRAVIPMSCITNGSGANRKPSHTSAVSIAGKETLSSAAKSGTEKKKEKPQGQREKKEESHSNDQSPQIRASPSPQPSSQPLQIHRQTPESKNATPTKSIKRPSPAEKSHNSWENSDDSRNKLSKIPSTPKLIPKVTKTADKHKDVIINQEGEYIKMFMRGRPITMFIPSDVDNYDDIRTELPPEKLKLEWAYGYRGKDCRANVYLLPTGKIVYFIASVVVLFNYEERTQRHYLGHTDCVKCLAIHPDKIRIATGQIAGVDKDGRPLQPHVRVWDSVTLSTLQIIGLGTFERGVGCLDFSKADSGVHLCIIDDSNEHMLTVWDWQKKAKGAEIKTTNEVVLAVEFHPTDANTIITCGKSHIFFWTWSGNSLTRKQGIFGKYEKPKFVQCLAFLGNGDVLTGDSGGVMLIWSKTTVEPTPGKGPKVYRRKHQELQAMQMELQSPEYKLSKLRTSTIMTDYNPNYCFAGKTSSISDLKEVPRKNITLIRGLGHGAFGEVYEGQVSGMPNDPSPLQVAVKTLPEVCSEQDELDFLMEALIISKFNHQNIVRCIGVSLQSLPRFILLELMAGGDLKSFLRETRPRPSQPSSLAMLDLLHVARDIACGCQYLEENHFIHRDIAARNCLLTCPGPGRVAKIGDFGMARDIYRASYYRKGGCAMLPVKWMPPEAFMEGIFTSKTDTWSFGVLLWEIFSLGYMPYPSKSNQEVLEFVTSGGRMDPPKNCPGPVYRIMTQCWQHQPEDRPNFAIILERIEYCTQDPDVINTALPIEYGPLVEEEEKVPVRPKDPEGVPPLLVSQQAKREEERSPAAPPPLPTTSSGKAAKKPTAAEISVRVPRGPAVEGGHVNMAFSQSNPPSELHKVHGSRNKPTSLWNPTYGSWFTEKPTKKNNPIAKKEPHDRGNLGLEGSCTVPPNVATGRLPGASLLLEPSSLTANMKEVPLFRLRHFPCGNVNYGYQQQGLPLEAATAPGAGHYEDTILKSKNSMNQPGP
Summary of the method: (§4)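 IL-3-independent Ba/F3 monoclones, puromycin-selected, transduced with fusion genes; 1,000 cells/well, 1 day rest, 3-fold compound series, 72 h. Read: CellTiter-Glo luminescence. IC50 from % inhibition vs concentration, 4-parameter logistic.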

[4] = biological target: T9, Ba/F3 cells EML4-ALK L1196M/G1202R (variant 1) (Homo sapiens, UniProt Q9UM73, G1202R/L1196M); test: Ba/F3 cell proliferation assay, EML4-ALK L1196M/G1202R (variant 1); type: cell-based; settings: 72 hours, CellTiter-Glo
T9 construct: echinoderm microtubule-associated protein-like 4 (EML4) gene and the ALK tyrosine kinase domain; host or cells: Ba/F3 (RIKEN), retroviral pMSCV-puro; the other entry of the earlier key: EML4 (Q9HC35, Echinoderm microtubule-associated protein-like 4)
T9 sequence (Q9UM73 with tags, fused parts or gaps L1196M/G1202R): as the sequence (Q9UM73 with tags, fused parts or gaps) above, with L635M, G641R counted along it
Summary of the method: as §4

Ba/F3 cells TPM3-TRKA = biological target: T10, Ba/F3 cells TPM3-TRKA (Homo sapiens, UniProt P04629); test: Ba/F3 cell proliferation assay, TPM3-TRKA; type: cell-based; settings: 72 hours, CellTiter-Glo, read-out: TPM3-NTRK1-wt IC50
T10 construct: host or cells: Ba/F3 (RIKEN), retroviral pMSCV-puro; the other entry of the earlier key: TPM3 (P06753, Tropomyosin alpha-3 chain)
T10 sequence (P04629 510-796 limits assumed): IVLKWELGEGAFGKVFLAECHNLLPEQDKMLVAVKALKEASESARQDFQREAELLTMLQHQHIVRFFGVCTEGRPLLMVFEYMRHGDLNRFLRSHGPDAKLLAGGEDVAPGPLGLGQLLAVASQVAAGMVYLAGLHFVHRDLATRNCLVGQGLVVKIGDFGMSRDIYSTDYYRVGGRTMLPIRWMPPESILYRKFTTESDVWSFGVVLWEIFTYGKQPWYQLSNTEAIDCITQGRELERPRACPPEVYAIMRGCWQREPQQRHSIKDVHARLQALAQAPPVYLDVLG
Summary of the method: as §4

[5] = system: TPM3-NTRK1-wt IC50 / primary target IC50 (e.g. CD74-ROS1-wt); test: TRKA selectivity in Ba/F3 cells (TRKA potency divided by primary target potency); type: cell-based; settings: for TPM3-NTRK1-wt/CD74-ROS1-G2032R selectivity ratio: TRKA potency / CD74-ROS1-G2032R potency; for TPM3-NTRK1-wt/CD74-ROS1-wt selectivity ratio: TRKA potency / CD74-ROS1-wt potency; for TPM3-NTRK1-wt/EML4-ALK-L1196M-G1202R selectivity ratio: TRKA potency / EML4-ALK-L1196M-G1202R potency; for TPM3-NTRK1-wt/EML4-ALK-wt selectivity ratio: TRKA potency / EML4-ALK-wt potency
Description: TRKA selectivity was calculated by dividing a compound's TRKA potency by its primary target potency (e.g. TPM3-NTRK1-wt IC50/CD74-ROS1-wt IC50). Compound selectivity can be interpreted by binning ratio values: bin A for very high selectivity, ratio >30-fold; bin B for high selectivity, ratio >10-fold; bin C for moderate selectivity, ratio ≥1; and bin D for low selectivity, ratio <1. […] (nd=not determined).

T1 sequence (Q9UM73 1116-1392 limits assumed): as the sequence (Q9UM73 1116-1392 L1196M/G1202R limits assumed) above, with M81L, R87G counted along it

SMILES | Ki (ALK-wt) | Ki (ALK L1196M/G1202R) | Ki (ROS1-wt) | Ki (ROS1-G2032R) | Ki (TRKA-wt) | IC50 [1] | IC50 [2] | IC50 [3] | IC50 [4] | IC50 (Ba/F3 cells TPM3-TRKA) | TPM3-NTRK1-wt/CD74-ROS1-G2032R selectivity ratio [5] | TPM3-NTRK1-wt/CD74-ROS1-wt selectivity ratio [5] | TPM3-NTRK1-wt/EML4-ALK-L1196M-G1202R selectivity ratio [5] | TPM3-NTRK1-wt/EML4-ALK-wt selectivity ratio [5]
C[C@H]1Oc2cc(cnc2N)-c2c(cnn2CC2CC2)Cc2nn(C)cc2-c2ccc(F)cc21 [Example 61, (19R)-3-(cyclopropylmetbyl)-16-fluoro-10,19-dimethyl-20-oxa-3,4,9,10,23-pentaazapentacyclo[19.3.1.0^2,^6.0^8,^12.0^13,^18]pentacosa-1(24),2(6),4,8,11,13,15,17,21(25),22-decaen-22-amine] | < 50 nM | < 50 nM | < 50 nM | < 50 nM | > 500 nM | 0.1 to 50 nM | 0.1 to 50 nM | 0.1 to 50 nM | 0.1 to 50 nM | > 500 nM | A (bin A for very high selectivity, ratio >30-fold) | A (bin A for very high selectivity, ratio >30-fold) | A (bin A for very high selectivity, ratio >30-fold) | A (bin A for very high selectivity, ratio >30-fold)
C[C@H]1Oc2cc(cnc2N)-c2c(cnn2CC2CC2)Cn2nc(Cl)cc2-c2ccc(F)cc21 [Example 74, (19R)-10-chloro-3-(cyclopropylmethyl)-16-fluoro-19-methyl-20-oxa-3,4,8,9,23-pentaazapentacyclo[19.3.1.0^2,^6.0^8,^12.0^13,^18]pentacosa-1(24),2(6),4,9,11,13,15,17,21 (25),22-decaen-22-amine] | < 50 nM | < 50 nM | < 50 nM | < 50 nM | 50 to 500 nM | 0.1 to 50 nM | 0.1 to 50 nM | 0.1 to 50 nM | 0.1 to 50 nM | 50 to 500 nM | A (bin A for very high selectivity, ratio >30-fold) | A (bin A for very high selectivity, ratio >30-fold) | B (bin B for high selectivity, ratio >10-fold) | A (bin A for very high selectivity, ratio >30-fold)
CCn1nc2c(n1)-c1ccc(F)cc1[C@@H](C)Oc1cc(cnc1N)-c1c(cnn1CC)C2 [Example 88, (19R)-3,10-diethyl-16-fluoro-19-methyl-20-oxa-3,4,9,10,11,23-hexaazapentacyclo(19.3.1.0^2,^6.0^8,^12.0^13,^18]pentacosa-1(24),2(6),4,8,11,13,15,17,21(25),22-decaen-22-amine] | < 50 nM | < 50 nM | < 50 nM | < 50 nM | 50 to 500 nM | 0.1 to 50 nM | 0.1 to 50 nM | 0.1 to 50 nM | 50 to 500 nM | 50 to 500 nM | A (bin A for very high selectivity, ratio >30-fold) | A (bin A for very high selectivity, ratio >30-fold) | C (bin C for moderate selectivity, ratio ≥1) | B (bin B for high selectivity, ratio >10-fold)
CCn1ncc2c1-c1cnc(N)c(c1)O[C@H](C)c1cc(F)ccc1-c1oc(C)nc1C2 [Example 66, (19R)-3-ethyl-16-fluoro-10,19-dimethyl-11,20-dioxa-3,4,9,23-tetraazapentacyclo[19.3.1,0^2,^6.0^8,^12.0^13,^18]pentacosa-1(24),2(6),4,8(12),9,13,15,17,21(25),22-decaen-22-amine] | < 50 nM | < 50 nM | < 50 nM | < 50 nM | 50 to 500 nM | 0.1 to 50 nM | 0.1 to 50 nM | 0.1 to 50 nM | 0.1 to 50 nM | 50 to 500 nM | A (bin A for very high selectivity, ratio >30-fold) | A (bin A for very high selectivity, ratio >30-fold) | C (bin C for moderate selectivity, ratio ≥1) | B (bin B for high selectivity, ratio >10-fold)
C[C@H]1Oc2cc(cnc2N)-c2c(cnn2C2CC2)Cc2nn(C)nc2-c2ccc(F)cc21 [Example 14, (19R)-3-cyclopropyl-16-fluoro-10,19-dimethyl-20-oxa-3,4,9,10,11,23-hexaazapentacyclo[19.3.1.0^2,^6.0^8,^12.0^13,^18]pentacosa-1(24),2(6),4,8,11,13,15,17,21(25),22-decaen-22-amine] | < 50 nM | < 50 nM | < 50 nM | < 50 nM | 50 to 500 nM | 0.1 to 50 nM | 0.1 to 50 nM | 0.1 to 50 nM | 50 to 500 nM | 50 to 500 nM | A (bin A for very high selectivity, ratio >30-fold) | A (bin A for very high selectivity, ratio >30-fold) | C (bin C for moderate selectivity, ratio ≥1) | A (bin A for very high selectivity, ratio >30-fold)
C[C@H]1Oc2cc(cnc2N)-c2c(cnn2CC(F)F)Cn2nc(Cl)cc2-c2ccc(F)cc21 [Example 55, (19R)-10-chloro-3-(2,2difluoroethyl)-16-fluoro-19-methyl-20-oxa-3,4,8,9,23-pentaazapentacyclo[19.3.1.0^2,^6.0^8,^12.0^13,^18]pentacosa-1(24),2(6),4,9,11,13,15,17,21(25),22-decaen-22-amine] | < 50 nM | 50 to 500 nM | < 50 nM | < 50 nM | > 500 nM | 0.1 to 50 nM | 0.1 to 50 nM | 0.1 to 50 nM | 50 to 500 nM | > 500 nM | A (bin A for very high selectivity, ratio >30-fold) | A (bin A for very high selectivity, ratio >30-fold) | C (bin C for moderate selectivity, ratio ≥1) | A (bin A for very high selectivity, ratio >30-fold)
